The values that follow come from patent publication US7517849B1, “Inhibition of ABC transporters by transmembrane domain analogs” (priority 1999, dated 2009).

Read-outs that look alike come from different tables or passages of the source. Where no end group is shown, it is not given here.

One data set concerns the target T1, human P-gp (Homo sapiens, UniProt P08183).
T1 construct: P-gp-expressing KB 8-5 cells were trypsinized; endogenous in cells; host or cells: KB 8-5 cells
Kind of data set: Fluorogenic substrate (rhodamine 123) accumulation/efflux assay by FACS in P-gp-expressing KB 8-5 cells. Format: cell-based. The method, then: The activity of the antagonists was tested in KB 8-5 cells which express human P-gp (described in Hrycyna et al.; Biochemistry 37:13660-73 (1998)). Analyses of P-gp transport activity were conducted by fluorogenic substrate accumulation assays utilizing fluorescence activated cell sorting (FACS) analysis, as described in Dey, S. et al., Biochemistry 38:6630-9 (1999). […] In initial screens, […] stock solutions of TM peptides in DMSO were diluted in medium to give 10-50 μM solutions. Active compounds were then tested at progressively lower concentrations.
P-gp-expressing KB 8-5 cells were trypsinized, washed with 15 mL Iscove's modified Dulbecco's medium (IMEM), supplemented with 5% fetal bovine serum (FBS), and resuspended in the same medium. […] After the incubation, the cells were pelleted by centrifugation at 200×g and incubated further in their respective rhodamine-free media (+/−TM peptide) for an additional 45 min at 37° C. in the dark. Cells were then pelleted and resuspended in 400 μL of phosphate-buffered saline without Ca+2 or Mg+2 and immediately analyzed by fluorescence activated cell sorting (FACS).
Incubations of KB 8-5 cells were carried out as described in the previous Example, except that varying concentrations of the analog called TM 6 (see Example 4, supra) were used as the TM polypeptide.
For orientation: In flow cytometry, cells or beads pass a laser one at a time.

Data set [1] has as its system Human colon cancer cells HCT15. Kind of data set: Sensitisation of HCT15 cells to adriamycin, sulforhodamine B toxicity assay. Format: cell-based. The settings on record: HCT-15, 96 h, four days, without analog. (In general: Sulforhodamine B stains cellular protein and so reports cell mass.)
The target in data set [2] is human P-glycoprotein (product of MDR1 gene) (human, UniProt P08183 1-1280). Kind of data set: cell-based or functional assay.
Chain of human P-glycoprotein (product of MDR1 gene) (P08183 whole entry S893A): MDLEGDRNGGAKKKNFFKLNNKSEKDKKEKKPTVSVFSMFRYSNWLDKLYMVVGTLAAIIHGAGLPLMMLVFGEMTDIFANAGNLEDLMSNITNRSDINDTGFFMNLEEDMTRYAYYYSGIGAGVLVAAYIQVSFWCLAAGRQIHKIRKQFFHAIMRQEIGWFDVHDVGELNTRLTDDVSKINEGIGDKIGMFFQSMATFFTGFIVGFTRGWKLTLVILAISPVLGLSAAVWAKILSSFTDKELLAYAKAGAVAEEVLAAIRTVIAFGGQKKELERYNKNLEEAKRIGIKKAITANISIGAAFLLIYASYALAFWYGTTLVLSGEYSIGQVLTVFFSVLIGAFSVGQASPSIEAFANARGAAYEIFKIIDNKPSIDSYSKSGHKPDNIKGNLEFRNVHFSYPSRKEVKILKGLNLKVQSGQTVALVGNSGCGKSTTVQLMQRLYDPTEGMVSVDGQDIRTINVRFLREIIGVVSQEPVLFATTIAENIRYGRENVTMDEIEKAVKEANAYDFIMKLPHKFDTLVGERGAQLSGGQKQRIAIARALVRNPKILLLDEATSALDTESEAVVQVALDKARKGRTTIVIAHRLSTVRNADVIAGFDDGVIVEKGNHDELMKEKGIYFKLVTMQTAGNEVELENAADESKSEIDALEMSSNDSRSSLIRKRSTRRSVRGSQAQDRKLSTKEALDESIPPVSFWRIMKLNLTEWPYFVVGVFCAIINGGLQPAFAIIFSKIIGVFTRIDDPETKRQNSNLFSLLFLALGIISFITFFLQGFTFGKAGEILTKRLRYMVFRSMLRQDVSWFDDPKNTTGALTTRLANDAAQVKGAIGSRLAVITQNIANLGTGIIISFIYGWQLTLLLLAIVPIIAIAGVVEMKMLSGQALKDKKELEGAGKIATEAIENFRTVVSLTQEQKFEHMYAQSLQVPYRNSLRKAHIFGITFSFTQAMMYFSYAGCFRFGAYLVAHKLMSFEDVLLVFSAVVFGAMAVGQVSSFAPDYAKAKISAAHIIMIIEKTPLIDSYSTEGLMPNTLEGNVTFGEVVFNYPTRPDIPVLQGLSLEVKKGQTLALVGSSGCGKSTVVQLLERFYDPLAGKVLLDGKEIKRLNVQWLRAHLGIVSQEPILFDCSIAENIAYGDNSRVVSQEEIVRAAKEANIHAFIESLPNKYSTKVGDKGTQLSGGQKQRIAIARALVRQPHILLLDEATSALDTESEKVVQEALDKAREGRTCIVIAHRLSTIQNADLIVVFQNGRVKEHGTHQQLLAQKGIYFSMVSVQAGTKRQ

T1 sequence (P08183 whole entry): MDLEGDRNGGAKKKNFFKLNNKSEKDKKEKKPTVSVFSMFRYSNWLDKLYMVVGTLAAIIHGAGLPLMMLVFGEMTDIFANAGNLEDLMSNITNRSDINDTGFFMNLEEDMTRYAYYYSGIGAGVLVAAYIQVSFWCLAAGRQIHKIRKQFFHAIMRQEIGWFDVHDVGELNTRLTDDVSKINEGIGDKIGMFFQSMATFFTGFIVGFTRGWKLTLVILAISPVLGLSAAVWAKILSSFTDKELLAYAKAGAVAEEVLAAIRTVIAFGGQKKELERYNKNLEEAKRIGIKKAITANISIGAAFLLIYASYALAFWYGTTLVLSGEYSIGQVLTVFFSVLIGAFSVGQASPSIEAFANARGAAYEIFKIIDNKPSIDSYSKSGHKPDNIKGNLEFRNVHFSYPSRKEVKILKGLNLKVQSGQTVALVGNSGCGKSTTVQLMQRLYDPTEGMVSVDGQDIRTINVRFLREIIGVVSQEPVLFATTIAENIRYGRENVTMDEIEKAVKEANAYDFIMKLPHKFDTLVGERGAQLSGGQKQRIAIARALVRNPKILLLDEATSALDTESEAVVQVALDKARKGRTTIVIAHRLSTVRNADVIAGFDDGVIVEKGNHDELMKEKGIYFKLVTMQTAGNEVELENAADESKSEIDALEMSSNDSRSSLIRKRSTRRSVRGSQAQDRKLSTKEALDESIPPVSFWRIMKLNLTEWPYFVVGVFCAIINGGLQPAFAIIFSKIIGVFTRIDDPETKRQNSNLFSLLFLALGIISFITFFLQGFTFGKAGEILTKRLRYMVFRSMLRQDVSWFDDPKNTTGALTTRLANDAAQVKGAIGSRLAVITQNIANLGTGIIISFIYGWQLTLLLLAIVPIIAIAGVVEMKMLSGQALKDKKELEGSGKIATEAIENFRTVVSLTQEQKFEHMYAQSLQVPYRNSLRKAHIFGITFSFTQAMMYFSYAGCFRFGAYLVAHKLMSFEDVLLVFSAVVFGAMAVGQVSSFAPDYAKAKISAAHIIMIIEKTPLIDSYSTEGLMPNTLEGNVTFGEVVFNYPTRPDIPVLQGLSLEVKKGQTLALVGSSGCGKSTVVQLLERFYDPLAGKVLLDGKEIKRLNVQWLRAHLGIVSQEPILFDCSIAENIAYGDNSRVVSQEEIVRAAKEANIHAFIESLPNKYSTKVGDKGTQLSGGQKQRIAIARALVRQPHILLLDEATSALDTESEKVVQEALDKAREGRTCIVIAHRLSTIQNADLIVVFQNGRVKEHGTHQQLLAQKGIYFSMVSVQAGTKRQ

Turning to DSGEYSIGQVLTVFFSVLIGAFSV [TM peptide 6], the “inhibition of rhodamine efflux” value on human P-gp (5 μM TM peptide, KB 8-5 cells, 0.5 μg/mL rhodamine 123, FACS) is listed as “inhibited rhodamine efflux”. Besides, the “activity as inhibitor of the MDR1 ABC transporter (in words)” value (shortened to “activity as inhibitor”) at human P-gp (cells expressing MDR1, efflux of substrates) is “most active”. The “inhibitory power compared with cyclosporin A” value against human P-gp (positive control 5 μM cyclosporin A, KB 8-5 cells) was “not as powerful an inhibitor as cyclosporin A”. Also, at human P-gp (varying concentrations, KB 8-5 cells, rhodamine 123 efflux), the “dose/response inhibition of P-gp” value is on record as “inhibited P-gp in a dose dependent manner”. Broadly, the IC50 is the concentration that gives 50% inhibition. As for `COc1cccc2c1C(=O)c1c(O)c3c(c(O)c1C2=O)C[C@@](O)(C(=O)CO)C[C@@H]3O[C@H]1C[C@H](N)[C@H](O)[C@H](C)O1` [adriamycin], in data set [1], the half-inhibitory concentration (IC50) was 150 ± 10 nM. For the molecule “LLIYASYALAFWYGTTLVLSGEGSSG-OH [TM5 analog]”, on human P-gp, the “activity as inhibitor” value was “strongest inhibitor of the MDR1 ABC transporter yet tested” and the “inhibition of rhodamine 123 efflux compared with 5 micromolar cyclosporin” value is given as “same degree of inhibition of rhodamine 123 efflux from MDR1 expressing cells as 5 micromolar cyclosporin”.

Regarding “ISIGAAFLLIYASYALAFWYGTTDD-OH [TM5 Analog 1]”, the “activity as inhibitor” value on human P-gp is recorded as “active”.

With DSGEYSIGQVLTVFFSVLIGAFSV [TM6 analog of MDR1 (synthetic peptide), Analog 1], the “IC50 of adriamycin (sulforhodamine B toxicity assay, HCT15 cells) in the presence of 1 µM TM6” value in data set [2] was 80 nM.
